Measurements as given in patent US20090143279A1 (priority 2007, published 2009).
Read-outs that look alike come from different tables or passages of the source.

Legend:
cytochrome c = assay type: cell-based, mouse
OXPHOS gene expression = assay type: cell-based, mouse
reactive oxygen species = assay type: cell-based, mouse
nuOXPHOS transcripts = assay type: cell-based, mouse
[1] = test system: mitochondrial membrane potential; assay type: cell-based, mouse
mtOXPHOS transcripts = assay type: cell-based, mouse
[2] = test system: cellular dehydrogenase activity
[3] = composite Z-score vs DMSO, Conc 20 μM
[4] = normalized composite Z-score vs mock-treated (DMSO) wells, Conc 20 μM
[5] = composite Z-score vs mock-treated (DMSO) wells, Conc 20 μM
[6] = composite Z-score vs DMSO wells, Conc 20 μM
[7] = composite Z-score vs DMSO, Conc 8 μM
[8] = Conc 20 μM, normalized score vs mock-treated (DMSO) wells

N=C(N)N/N=C/c1c(Cl)cccc1Cl [guanabenz] was tested. Which cyt c (cytochrome c; [3]) did it give?
The cyt c was 0.420.

What about the GE-HTS (OXPHOS gene expression; [3]) of the same molecule?
The GE-HTS was −0.428.

What about the Viability (C2C12 myotubes; [3]) of the same molecule?
The Viability was −0.404.

And the ROS (reactive oxygen species; [3])?
Its ROS is 1.527.

And the nucOX (nuOXPHOS transcripts; [3])?
The nucOX was −0.286.

And the ΔΨm [1, 3]?
Its ΔΨm is −1.073.

What about the mitoOX (mtOXPHOS transcripts; [3]) of the same molecule?
The mitoOX was −0.563.

And the MTT [2, 3]?
Its MTT is −0.886.

What does the source list for N=C(N)N.N=C(N)N.O=C(O)O [guanidine carbonate]?
cyt c (cytochrome c; [3]): −1.206; GE-HTS (OXPHOS gene expression; [3]): −1.142; Viability (C2C12 myotubes; [3]): −0.835; ROS (reactive oxygen species; [3]): 0.401; nucOX (nuOXPHOS transcripts; [3]): −1.112; ΔΨm [1, 3]: −0.252; mitoOX (mtOXPHOS transcripts; [3]): −0.993; MTT [2, 3]: −0.683

Which results are given for Cc1cc(OC(=O)c2c(C)cc(OC(=O)c3c(C)cc(O)cc3O)cc2O)cc(O)c1C(=O)O [gyrophoric acid]?
cyt c (cytochrome c; [4]): −0.557; GE-HTS (OXPHOS gene expression; [4]): −0.471; Viability (C2C12 myotubes; [4]): −0.579; ROS (reactive oxygen species; [4]): 0.897; nucOX (nuOXPHOS transcripts; [4]): −0.546; ΔΨm [1, 4]: −0.842; mitoOX (mtOXPHOS transcripts; [4]): −0.289; MTT [2, 4]: −0.977

For CCOC(=O)c1c(C)cc(O)c(C=O)c1O [haematommic acid, ethyl ester], which cyt c (cytochrome c; [5]) is on record?
The cyt c was −0.104.

What about the GE-HTS (OXPHOS gene expression; [5]) of the same molecule?
The GE-HTS was 0.450.

What about the Viability (C2C12 myotubes; [5]) of the same molecule?
Its Viability is −0.557.

And the ROS (reactive oxygen species; [5])?
The ROS was 0.478.

What about the nucOX (nuOXPHOS transcripts; [5]) of the same molecule?
The nucOX was 0.387.

What about the ΔΨm [1, 5] of the same molecule?
Its ΔΨm is −0.120.

And the mitoOX (mtOXPHOS transcripts; [5])?
Its mitoOX is 0.537.

And the MTT [2, 5]?
Its MTT is −0.761.

Which cyt c (cytochrome c; [3]) does the source give for Cc1cc(O)c(C=O)c(O)c1C(=O)O [haematommic acid] here?
Its cyt c is 0.631.

And the GE-HTS (OXPHOS gene expression; [3])?
Its GE-HTS is −0.410.

What about the Viability (C2C12 myotubes; [3]) of the same molecule?
The Viability was −0.412.

And the ROS (reactive oxygen species; [3])?
The ROS was −1.077.

And the nucOX (nuOXPHOS transcripts; [3])?
The nucOX was −0.078.

What about the ΔΨm [1, 3] of the same molecule?
Its ΔΨm is 0.002.

And the mitoOX (mtOXPHOS transcripts; [3])?
The mitoOX was −1.067.

What about the MTT [2, 3] of the same molecule?
Its MTT is −0.740.

How did the cyt c (cytochrome c; [3]) turn out when CC1=C(CCC(=O)O)c2cc3[nH]c(cc4nc(cc5[nH]c(cc1n2)c(C)c5C(C)O)C(C)=C4C(C)O)c(C)c3CCC(=O)O (stereo not shown) [haematoporphyrin] was run?
Its cyt c is 0.324.

And the GE-HTS (OXPHOS gene expression; [3])?
Its GE-HTS is 0.309.

And the Viability (C2C12 myotubes; [3])?
Its Viability is −1.933.

And the ROS (reactive oxygen species; [3])?
Its ROS is 1.666.

What about the nucOX (nuOXPHOS transcripts; [3]) of the same molecule?
Its nucOX is 0.251.

And the ΔΨm [1, 3]?
The ΔΨm was −3.662.

And the mitoOX (mtOXPHOS transcripts; [3])?
The mitoOX was 0.416.

And the MTT [2, 3]?
Its MTT is −3.312.

For O=C(O)c1ccc(S(=O)(=O)N(Cl)Cl)cc1 [halazone], which cyt c (cytochrome c; [6]) is on record?
Its cyt c is −0.942.

What about the GE-HTS (OXPHOS gene expression; [6]) of the same molecule?
Its GE-HTS is 0.565.

What about the Viability (C2C12 myotubes; [6]) of the same molecule?
Its Viability is −0.242.

And the ROS (reactive oxygen species; [6])?
The ROS was 0.779.

What about the nucOX (nuOXPHOS transcripts; [6]) of the same molecule?
Its nucOX is 0.593.

And the ΔΨm [1, 6]?
The ΔΨm was −0.334.

And the mitoOX (mtOXPHOS transcripts; [6])?
The mitoOX was 0.385.

What about the MTT [2, 6] of the same molecule?
The MTT was −0.445.

For CC1(C)O[C@@H]2C[C@H]3[C@@H]4CCC5=CC(=O)CC[C@]5(C)[C@@]4(F)[C@@H](O)C[C@]3(C)[C@]2(C(=O)CCl)O1 [halcinonide], which cyt c (cytochrome c; [3]) is on record?
Its cyt c is −0.794.

What about the GE-HTS (OXPHOS gene expression; [3]) of the same molecule?
The GE-HTS was 0.492.

What about the Viability (C2C12 myotubes; [3]) of the same molecule?
The Viability was 0.106.

And the ROS (reactive oxygen species; [3])?
Its ROS is 0.624.

What about the nucOX (nuOXPHOS transcripts; [3]) of the same molecule?
Its nucOX is 0.284.

What about the ΔΨm [1, 3] of the same molecule?
The ΔΨm was 0.570.

What about the mitoOX (mtOXPHOS transcripts; [3]) of the same molecule?
Its mitoOX is 0.831.

What about the MTT [2, 3] of the same molecule?
Its MTT is −0.789.

For CCCCN(CCCC)CCC(O)c1cc2c(Cl)cc(Cl)cc2c2cc(C(F)(F)F)ccc12 (stereo not shown) [halofantrine], which cyt c (cytochrome c; [7]) is on record?
Its cyt c is −0.236.

What about the GE-HTS (OXPHOS gene expression; [7]) of the same molecule?
Its GE-HTS is −0.508.

And the Viability (C2C12 myotubes; [7])?
Its Viability is 0.132.

And the ROS (reactive oxygen species; [7])?
Its ROS is 0.012.

What about the nucOX (nuOXPHOS transcripts; [7]) of the same molecule?
The nucOX was −0.239.

What about the ΔΨm [1, 7] of the same molecule?
The ΔΨm was −0.668.

What about the mitoOX (mtOXPHOS transcripts; [7]) of the same molecule?
The mitoOX was −0.969.

And the MTT [2, 7]?
Its MTT is −0.174.

C[C@@H]1O[C@@H](O[C@H]2[C@H](O[C@H]3CC[C@@]4(C)[C@@H](CC[C@]5(C)[C@@H]4CC=C4[C@@H]6CC(C)(C)CC[C@]6(C(=O)O[C@@H]6O[C@H](CO[C@@H]7O[C@H](CO)[C@@H](O[C@@H]8O[C@@H](C)[C@H](O)[C@@H](O)[C@H]8O)[C@H](O)[C@H]7O)[C@@H](O)[C@H](O)[C@H]6O)CC[C@]45C)[C@]3(C)CO)OC[C@H](O)[C@@H]2O)[C@H](O)[C@H](O)[C@H]1O [hederacoside C] was tested. Which “cyt c (composite Z-score)” value (cytochrome c; [8]) did it give?
The value was 0.471.

And the “GE-HTS (composite Z-score)” value (OXPHOS gene expression; [8])?
Its value is −0.809.

What about the “Viability (composite Z-score)” value (C2C12 myotubes; [8]) of the same molecule?
Its value is −0.672.

And the “ROS (composite Z-score)” value (reactive oxygen species; [8])?
Its value is 0.079.

What about the “nucOX (composite Z-score)” value (nuOXPHOS transcripts; [8]) of the same molecule?
The value was −0.645.

What about the “ΔΨm (composite Z-score)” value [1, 8] of the same molecule?
Its value is −0.559.

And the “mitoOX (composite Z-score)” value (mtOXPHOS transcripts; [8])?
The value was −0.952.

And the “MTT (composite Z-score)” value [2, 8]?
Its value is −1.226.

What does the source list for CC1(C)CC[C@]2(C(=O)O)CC[C@]3(C)C(=CC[C@@H]4[C@@]5(C)CC[C@H](O)[C@@](C)(CO)[C@@H]5CC[C@]43C)[C@@H]2C1 [hederagenin]?
cyt c (cytochrome c): 0.945; GE-HTS (OXPHOS gene expression): −0.654; Viability (C2C12 myotubes): 0.310; ROS (reactive oxygen species): 0.385; nucOX (nuOXPHOS transcripts): −0.630; ΔΨm [1]: −0.901; mitoOX (mtOXPHOS transcripts): −0.540; MTT [2]: −1.259
